Test results from patent US9210928B2, “Plant development control composition” (Syngenta Crop Protection, LLC, priority 2008, dated 2015).
“Also recorded” adds a separate entry of the source.

What was measured:
LeCCD1a = LeCCD1a (Solanum lycopersicum, UniProt Q6E4P5); test: In vitro LeCCD1a enzyme assay (recombinant cell-free extract, colourimetric, apo-8′-carotenal substrate); assay type: biochemical, tomato (Solanum lycopersicum); settings: for inhibition at 100 µM: read-out: LeCCD1a (9,10/9′,10′) Inhibition @ 100 μM (%)
Procedure: In vitro LeCCD1a enzyme assay—We over-expressed LeCCD1a in E. coli, as a GST-fusion protein (supplemental methods). The in vitro assay of LeCCD1a was based on reported methods (37), and was carried out in a 200 μl total volume in a 96-well microtitre plate, with the signal detected at 485 nm. To prepare substrate solution for each assay, 5 μl of 4% (w/v in ethanol) apo-8′-carotenal (Sigma) was mixed with 25 μl of 4% (w/v in ethanol) β-octylglucoside (Sigma), the ethanol was then evaporated under nitrogen, and the residue dissolved in 150 μl PBS buffer containing 10 mM sodium ascorbate by incubation at 20° C. for 30 min. 50 μl of cell-free extract containing recombinant LeCCD1a was added, and the reactions monitored over 30 min at 20° C.
(§1) For the production of cell-free extracts of LeCCD1a and LeNCED1, cultures were grown to an OD of 0.6 at 37° C., then isopropyl β-D-1-thiogalactopyranoside (IPTG) was added to 0.2 mM and the cultures grown overnight at 20° C. The cells (200 ml cultures) were harvested by centrifugation (5000 rpm, 10 min) and the pellet re-suspended in 4 ml PBS, 0.1% Triton-X 100. Lysozyme was added to a final concentration of 25 μg ml^−1 and the solution incubated at room temperature for 15 min before sonication (3×30 s at 18Ω) on ice. The lysate was then centrifuged (13000 rpm, 15 min, 4° C.) and the supernatant used for the assay.
(§2) Specificity of inhibition in vitro for tomato genes LeNCED1 and LeCCD1a—In order to screen the inhibitors against enzymes which cleave carotenoids at the 9,10 position, we used the recombinant tomato LeCCD1a protein (44), because this type of enzyme can be studied using an in vitro colourimetric assay with β-apo-8′-carotenal as substrate (37). To establish the specificity of the inhibitors, they were also tested against the tomato LeNCED1 recombinant protein which cleaves 9-cis carotenoids at the 11,12 position (45). For this enzyme, the cleavage reaction was monitored by C18 reverse phase HPLC, using 9′-cis-neoxanthin as substrate.

LeNCED1 = biological target: T1, LeNCED1 (Solanum lycopersicum, UniProt O24023); test: In vitro NCED enzyme assay (recombinant LeNCED1 cell-free extract, HPLC, 9′-cis-neoxanthin substrate); assay type: biochemical, tomato
T1 construct: made in house; host or cells: E. coli Rosetta (DE3); crude cell-free extract
Procedure: In vitro NCED enzyme assay—We over-expressed LeNCED1 in E. coli, as an N-terminal His6-fusion protein (supplemental methods). Cell-free extract containing recombinant LeNCED1 was prepared in 100 mM bis-tris buffer (pH 6.7). 15 μl extract was pre-activated by addition of iron(II) sulphate (20 mM, 1 μl) and ascorbic acid (20 mM, 1 μl) on ice for 2 min, prior to use. This aliquot of enzyme was then added to an assay (150 μl total volume) containing 100 mM bis-tris buffer (pH 6.7), 0.05% v/v Triton X-100, 1.0 mg/ml catalase, and 3 μg 9′-cis-neoxanthin. The 9′-cis-neoxanthin substrate was prepared as described in supplemental methods. The enzyme assay was incubated for 15 min in the dark at 20° C. Water (700 μl) was then added, and the products extracted with ethyl acetate (3×1 ml). The organic solvent was removed at reduced pressure, the residue was dissolved in methanol (200 μl), and then 100 μl was injected onto a Phenomenex C18 reverse phase HPLC column, and a gradient of 5-10% methanol in acetonitrile/0.05% triethylamine was applied at 0.5 ml/min over 20 min, detecting at 440 nm. NCED inhibition assays contained 1-100 μM inhibitor; inhibition was calculated from the product formation after 15 min, compared to a control assay with no inhibitor present.
as §1, §2

[1] = 100 μM inhibitor, E. coli cell extract with recombinant CCD

T1 sequence (O24023 17-605): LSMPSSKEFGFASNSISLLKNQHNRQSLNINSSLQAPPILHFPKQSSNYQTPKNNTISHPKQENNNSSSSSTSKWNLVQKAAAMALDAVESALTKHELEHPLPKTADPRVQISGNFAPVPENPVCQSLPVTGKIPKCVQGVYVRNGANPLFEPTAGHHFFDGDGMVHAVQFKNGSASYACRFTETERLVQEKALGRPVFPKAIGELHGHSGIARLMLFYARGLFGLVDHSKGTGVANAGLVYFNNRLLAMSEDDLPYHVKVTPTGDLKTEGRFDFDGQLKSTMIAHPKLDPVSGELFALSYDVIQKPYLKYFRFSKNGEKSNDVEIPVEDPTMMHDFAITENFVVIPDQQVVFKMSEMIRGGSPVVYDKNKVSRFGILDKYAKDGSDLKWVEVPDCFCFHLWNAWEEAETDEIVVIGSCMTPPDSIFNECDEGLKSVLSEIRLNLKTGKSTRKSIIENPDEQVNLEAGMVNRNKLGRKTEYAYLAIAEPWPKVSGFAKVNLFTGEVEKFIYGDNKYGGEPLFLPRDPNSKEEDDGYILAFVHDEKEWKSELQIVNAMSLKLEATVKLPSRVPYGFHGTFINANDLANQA
Sequence of LeCCD1a (Q6E4P5 1-545): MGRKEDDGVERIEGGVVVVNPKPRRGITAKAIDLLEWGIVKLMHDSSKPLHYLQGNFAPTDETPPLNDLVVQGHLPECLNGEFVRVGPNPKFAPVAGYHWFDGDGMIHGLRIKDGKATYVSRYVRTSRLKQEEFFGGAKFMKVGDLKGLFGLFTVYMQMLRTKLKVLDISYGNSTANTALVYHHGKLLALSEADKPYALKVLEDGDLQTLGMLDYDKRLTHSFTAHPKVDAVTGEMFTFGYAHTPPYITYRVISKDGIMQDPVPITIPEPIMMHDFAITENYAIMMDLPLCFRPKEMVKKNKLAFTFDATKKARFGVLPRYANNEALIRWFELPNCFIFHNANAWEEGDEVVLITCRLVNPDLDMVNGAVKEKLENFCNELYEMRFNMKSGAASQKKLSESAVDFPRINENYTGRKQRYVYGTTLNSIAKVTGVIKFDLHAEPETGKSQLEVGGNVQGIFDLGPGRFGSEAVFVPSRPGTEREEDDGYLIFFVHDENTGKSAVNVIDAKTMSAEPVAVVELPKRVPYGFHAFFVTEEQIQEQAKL

Compound | inhibition of LeCCD1 in vitro (in words) (LeCCD1a) | inhibition at 100 µM (LeCCD1a) [%] | inhibition of LeNCED1 in vitro (in words) (LeNCED1) | LeCCD1a (9,10/9′,10′) Inhibition @ 100 μM (%) (LeCCD1a; [1]) | LeNCED1 (11,12) Inhibition @ 100 μM (%) (LeNCED1; [1])
COc1ccc(C(=O)N(O)Cc2ccccc2)cc1 [Compound F1, N-benzyl-4-methoxybenzoyl hydroxamic acid] | high levels of inhibition of LeCCD1 | > 95 | little or no inhibition of LeNCED1; also recorded: no inhibition of LeNCED 1 was detected |  | 
COc1ccc(C(=O)N(O)Cc2ccc(F)cc2)cc1 [Compound F2, N-(4-fluorobenzyl)-4-methoxybenzoyl hydroxamic acid] | high levels of inhibition of LeCCD1 | > 95 | little or no inhibition of LeNCED1 |  | 
COc1ccc(C(=O)N(O)Cc2ccccc2)cc1OC [Compound F3, N-benzyl-3,4-dimethoxybenzoyl hydroxamic acid] |  |  |  | 50 | 2
